Measurements reported in US12570613B2, “Imidazoquinoline or benzoindazolone compound and intermediate for preparing same” (LMITO THERAPEUTICS INC., priority 2020, dated 2026).

Target: NQO1 protein (Homo sapiens, UniProt P15559)
Test: In vitro NQO1 enzyme activity assay (cytochrome C reduction, absorbance at 550 nm)
Format: biochemical
Conditions: NQO1 2 ng
Method: In order to evaluate the activity of the synthesized compound in NQO1, the experiments were performed as follows:
The synthesized compound was dissolved in DMSO to make a 10 mM stock solution, which was further diluted with DMSO to 250 μM so as to prepare a working solution. For experimental groups, the working solution of the compound was added to an enzyme reaction solution in which 50 μL of 1.54 mM Cytochrome C solution was added to 900 μL of 50 mM Tris-HCl (pH7.5) containing 0.14% BSA. For negative control groups, DMSO not containing the compound of the invention was added to the enzyme reaction solution as above. For each experimental and control group, 20 μL of 100 ng/mL NQO1 protein was added, and then 10 μL of 20 mM NADH was added to bring up the total volume to 1 mL. The change of absorbance was measured at 550 nm for 10 minutes using 1 mL cuvette. The kinetics of reaction was measured by the increase of absorbance as the cytochrome C was reduced at 550 nm over 10 minutes. The activity of NQO1 was measured by the amount of cytochrome C that is being reduced (nmol cytochrome C that was reduced/min/ug NQO1 protein). • Absorption coefficient of Cytochrome C: 21.1 (μmol/mL)^−1cm^−1 • BSA: Bovine Serum Albumin • […]: Tris(hydroxymethyl)aminomethane hydrochloride (buffer solution) • Equipment=Cary 100 UV-Vis Spectrophotometer • The results are shown in Tables 1 to 8.

Chain of NQO1 protein (P15559 whole entry, species assumed): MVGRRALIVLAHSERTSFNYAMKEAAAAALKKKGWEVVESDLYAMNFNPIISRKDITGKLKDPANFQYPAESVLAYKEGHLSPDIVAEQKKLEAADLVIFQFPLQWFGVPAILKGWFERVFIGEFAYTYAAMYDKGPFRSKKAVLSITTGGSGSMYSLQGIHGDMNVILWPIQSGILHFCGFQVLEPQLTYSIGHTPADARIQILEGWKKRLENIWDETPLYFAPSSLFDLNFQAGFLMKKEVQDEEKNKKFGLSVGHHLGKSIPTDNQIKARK

Compound | NQO1 activity assay Cytochrome C reduced/min/μg NQO1 protein (50 nM Compound (Table 8)) | also measured
Cc1nn(CCc2ccccc2)c2c1C(=O)C(=O)c1ccccc1-2 [Compound 64, 3-Methyl-1-phenethyl-1H-benzo[g]indazol-4,5-dione] | – | NQO1 activity assay Cytochrome C reduced/min/μg NQO1 protein (50 nM Compound (Table 2)): 2081 nmol cytochrome C that was reduced/min/ug NQO1 protein
Cc1nn(CCc2ccc(F)cc2)c2c1C(=O)C(=O)c1ccccc1-2 [Compound 65, 1-(4-Fluorophenethyl)-3-methyl-1H-benzo[g]indazol-4,5-dione] | – | NQO1 activity assay Cytochrome C reduced/min/μg NQO1 protein (50 nM Compound (Table 4)): 3714 nmol cytochrome C that was reduced/min/ug NQO1 protein
Cc1c2c(nn1CCc1ccc(F)cc1)-c1ccccc1C(=O)C2=O [Compound 66, 2-(4-Fluorophenethyl)-3-methyl-2H-benzo[g]indazol-4,5-dione] | – | NQO1 activity assay Cytochrome C reduced/min/μg NQO1 protein (50 nM Compound (Table 4)): 3001 nmol cytochrome C that was reduced/min/ug NQO1 protein
Cc1nn(CCCc2ccccc2)c2c1C(=O)C(=O)c1ccccc1-2 [Compound 67, 3-Methyl-1-(3-phenylpropyl)-1H-benzo[g]indazol-4,5-dione] | 1836 nmol cytochrome C that was reduced/min/ug NQO1 protein | –
Cc1ccc(CCn2nc(C)c3c2-c2ccccc2C(=O)C3=O)cc1 [Compound 68, 3-Methyl-1-(4-methylphenethyl)-1H-benzo[g]indazol-4,5-dione] | 1865 nmol cytochrome C that was reduced/min/ug NQO1 protein | –
Cc1ccc(CCn2nc3c(c2C)C(=O)C(=O)c2ccccc2-3)cc1 [Compound 69, 3-Methyl-2-(4-methylphenethyl)-2H-benzo[g]indazol-4,5-dione] | 2460 nmol cytochrome C that was reduced/min/ug NQO1 protein | –
Cc1c2c(nn1CCc1ccccc1F)-c1ccccc1C(=O)C2=O [Compound 70, 2-(2-Fluorophenethyl)-3-methyl-2H-benzo[g]indazol-4,5-dione] | 1611 nmol cytochrome C that was reduced/min/ug NQO1 protein | –
